Assay results published in ChEMBL document CHEMBL3045984, “Resistance to HPPD-inhibiting herbicides in a population of waterhemp (Amaranthus tuberculatus) from Illinois, United States” (2011).

What was measured:
Amaranthus tuberculatus [1] = assay: Resistance ratio of GR50 for Amaranthus tuberculatus biotype MCR to GR50 for Amaranthus tuberculatus biotype WCS; format: functional
Amaranthus tuberculatus [2] = assay: Resistance ratio of GR50 for Amaranthus tuberculatus biotype MCR to GR50 for Amaranthus tuberculatus biotype ACR; format: functional

CS(=O)(=O)c1ccc(C(=O)C2C(=O)CCCC2=O)c([N+](=O)[O-])c1 [MESOTRIONE]
Ratio (Amaranthus tuberculatus [1]): 35 | Ratio (Amaranthus tuberculatus [2]): 10
